Data reported in the supplement of paper PMC11061612.

What was measured:
Assay in all cases: Bliss excess, mean over the matrix (fraction); higher = more synergy
[1] = test system: NUGC-4 (Gastric Carcinoma)
Outline: (§1)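 Cell lines grown in DMEM/F12 or RPMI with 10% FBS were plated in 1536-well plates and held 24 hours at 37°C, 5% CO2 before 72 hours of exposure to two-drug dose matrices, with DMSO typically at 0.2%. CellTiter-Glo 2.0 luminescence gave viability, which was converted to inhibition. Vehicle wells were set to 0 and blank wells to 1. Combination Emax is the second-highest inhibition in the matrix, and Bliss excess is the observed combination effect minus the expected EA + EB − EA·EB, where EA and EB are the single-agent effects.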

A673 (Ewing's Sarcoma) = test system: A673 (Ewing's Sarcoma)
Outline: as §1

[2] = test system: SNU-449 (Hepatocellular Carcinoma)
Outline: as §1

[3] = test system: MHH-CALL-2 (B-Lymphoblastic Leukemia)
Outline: as §1

BE2-M17 (Neuroblastoma) = test system: BE2-M17 (Neuroblastoma)
Outline: as §1

[4] = test system: WSU-NHL (B-Cell Non-Hodgkin's Lymphoma)
Outline: as §1

KS-1 (Glioblastoma) = test system: KS-1 (Glioblastoma)
Outline: as §1

GAMG (Glioblastoma) = test system: GAMG (Glioblastoma)
Outline: as §1

[5] = test system: HeLa (Cervical Carcinoma)
Outline: as §1

[6] = test system: NCI-H1568 (Lung Adenocarcinoma)
Outline: as §1

SMILES | Bliss excess [1] | Bliss excess (A673 (Ewing's Sarcoma)) | Bliss excess [2] | Bliss excess [3] | Bliss excess (BE2-M17 (Neuroblastoma)) | Bliss excess [4] | Bliss excess (KS-1 (Glioblastoma)) | Bliss excess (GAMG (Glioblastoma)) | Bliss excess [5] | Bliss excess [6]
Cc1c2c(nn1C)CSCc1cc(n(C)n1)CSc1cc(c3ccccc3c1)OCCCc1c(C(=O)O)n(C)c3c-2c(Cl)ccc13 [AZD5991] + C[C@@H]1COCCN1C2=NC(=NC(=C2)C3(CC3)[S@](=N)(=O)C)C4=C5C=CNC5=NC=C4 [AZD6738] (first compound max 1 µM, 7x7, partner max 10 µM) | 0.02 | 0.0077 | 0.0175 | 0.0225 | 0.0574 | -0.0352 | 0.0147 | 0.0116 | 0.0217 | 0.0409
Cc1c2c(nn1C)CSCc1cc(n(C)n1)CSc1cc(c3ccccc3c1)OCCCc1c(C(=O)O)n(C)c3c-2c(Cl)ccc13 [AZD5991] + C[C@@H](Nc1cc(F)cc(F)c1)c1cc(C(=O)N(C)C)cc2c(=O)cc(N3CCOCC3)oc12 [AZD8186] (first compound max 1 µM, 7x7, partner max 3 µM) | -0.0056 | 0.0129 | -0.078 | -0.0188 | -0.0355 | -0.0366 | -0.0129 | -0.0458 | 0.0387 | 0.0126
Cc1c2c(nn1C)CSCc1cc(n(C)n1)CSc1cc(c3ccccc3c1)OCCCc1c(C(=O)O)n(C)c3c-2c(Cl)ccc13 [AZD5991] + Cc1cc2ncnn2cc1Nc1ncc2c(n1)n(C1CCOCC1)c(=O)n2C [AZD7648] (first compound max 1 µM, 7x7, partner max 10 µM) | -0.0498 | -0.0515 | -0.0453 | -0.011 | -0.0159 | -0.0594 | -0.0797 | -0.0321 | 0.0021 | -0.0717
Cc1c2c(nn1C)CSCc1cc(n(C)n1)CSc1cc(c3ccccc3c1)OCCCc1c(C(=O)O)n(C)c3c-2c(Cl)ccc13 [AZD5991] + Cn1cnc2c(F)c(Nc3ccc(Br)cc3Cl)c(C(=O)NOCCO)cc21 [Selumetinib] (first compound max 1 µM, 7x7, partner max 3 µM) | 0.0356 | 0.12 | -0.0846 | 0.111 | 0.0436 | -0.0489 | -0.0456 | 0.0368 | -0.004 | 0.102
NC1(C(=O)N[C@@H](CCO)c2ccc(Cl)cc2)CCN(c2ncnc3[nH]ccc23)CC1 [Capivasertib] + CC(=O)c1c(C)c2cnc(Nc3ccc(N4CCNCC4)cn3)nc2n(C2CCCC2)c1=O [Palbociclib] (first compound max 10 µM, 7x7, partner max 10 µM) | -0.0345 | -0.018 | 0.001 | -0.0739 | 0.0059 | -0.0671 | -0.0656 | 0.0237 | -0.0661 | -0.124
NC1(C(=O)N[C@@H](CCO)c2ccc(Cl)cc2)CCN(c2ncnc3[nH]ccc23)CC1 [Capivasertib] + CC(C)n1c(=O)n(C)c2cnc3cc(F)c(-c4ccc(OCCCN5CCCCC5)nc4)cc3c21 [AZD1390] (first compound max 10 µM, 7x7, partner max 0.3 µM) | -0.0524 | -0.0885 | -0.038 | -0.0439 | -0.115 | -0.0418 | -0.0969 | -0.0455 | -0.0537 | -0.0852
NC1(C(=O)N[C@@H](CCO)c2ccc(Cl)cc2)CCN(c2ncnc3[nH]ccc23)CC1 [Capivasertib] + CCN(CCO)CCCOc1ccc2c(Nc3cc(CC(=O)Nc4cccc(F)c4)[nH]n3)ncnc2c1 [AZD2811] (first compound max 10 µM, 7x7, partner max 1 µM) | -0.0543 | -0.0158 | -0.0166 | -0.0244 | -0.043 | -0.0697 | 0.0374 | -0.0737 | -0.0411 | -0.0235
NC1(C(=O)N[C@@H](CCO)c2ccc(Cl)cc2)CCN(c2ncnc3[nH]ccc23)CC1 [Capivasertib] + COc1nnc2ccc(N3CCC(c4ccc(OCCN5CCN(C)C(=O)[C@H]5C)cc4)CC3)nn12 [AZD5153] (first compound max 10 µM, 7x7, partner max 1 µM) | -0.0333 | -0.0386 | 0.0058 | -0.03 | 0.0666 | -0.0923 | -0.0211 | 0.039 | -0.0021 | -0.0032
NC1(C(=O)N[C@@H](CCO)c2ccc(Cl)cc2)CCN(c2ncnc3[nH]ccc23)CC1 [Capivasertib] + C[C@@H]1COCCN1C2=NC(=NC(=C2)C3(CC3)[S@](=N)(=O)C)C4=C5C=CNC5=NC=C4 [AZD6738] (first compound max 10 µM, 7x7, partner max 10 µM) | -0.0488 | 0.0077 | -0.0057 | -0.0076 | -0.0034 | -0.05 | -0.0366 | -0.0558 | -0.0926 | -0.0216
NC1(C(=O)N[C@@H](CCO)c2ccc(Cl)cc2)CCN(c2ncnc3[nH]ccc23)CC1 [Capivasertib] + Cn1cnc2c(F)c(Nc3ccc(Br)cc3Cl)c(C(=O)NOCCO)cc21 [Selumetinib] (first compound max 10 µM, 7x7, partner max 10 µM) | 0.0363 | 0.0877 | -0.0113 | 0.156 | 0.0158 | 0.0544 | 0.0426 | 0.0408 | 0.0032 | -0.055
